The values below come from patent US9512425B2, “Inhibiting migration of cancer cells” (Cornell University, priority 2012, dated 2016).

Holding throughout (assay type): cell-based, human
The subject of one data set is MDA cells. The data set can be described thus: Cell proliferation assay (EdU). The note with it: MDA cells transformed with miR-708 lentiviral expression system. The protocol: For cell proliferation assays, 1×10^6 MDA cells were cultured separately in suspension in non-adhesive 6-well dishes (Corning Inc) for 2 days. EdU ([…]) was administrated to culture medium for 30 min to label proliferating cells. Cells were harvested, washed once with PBS, and fixed with 4% paraformaldehyde for 15 min at room temperature. Fixed cells were permeabilized and stained for EdU incorporation and DNA contains with the Click-iT® EdU Cell Proliferation Assay kit (Invitrogen Inc) according to the standard protocol. Flow analyses of cell phases were performed using an LSRII coupled with Diva software (BD Bioscience).

Another data set has as its system MDA-MB-231 (MDA). The data set can be described thus: Wound healing / transwell migration of MDA cells stably expressing miR-708. As to conditions: MDA cells stably expressing miR-708 (lentiviral) vs controls. The text has this:
To express miRNA-708 in cells, about 500 bp of pri-miRNA containing the mature miR-708 sequence 5′-[…]-3′ (SEQ ID NO: 2) was amplified and cloned into the pZEO lentiviral construct in fusion with a GFP reporter as described (Ryu et al., 2011). miRNA sponge was generated according to (Ebert et al., 2007). Briefly, the sponge contains twelve miR-708 binding sites, 5′-[…]-3′ (SEQ ID NO: 3) which is fused with GFP and driven by an EF1α promoter. In particular, miRNA-708 was designed and cloned into the Xho I/EcoR I site of the lentiviral vector. To express miRNA-708 inducibly in cells, a doxycycline inducible construct was generated. […]
Cells were plated in triplicate into 6-well plates (5×10^5 cell/well) and cultured in DMEM containing 10% FBS. […] Cell migration was photographed and measured under phase-contrast microscopy. To measure cell migration after depletion of intracellular calcium, a scratch was made and the wound healing was monitored for 48 hr in the presence of 20 μM of BAPTA-AM (Invitrogen). The percentage of wound healed area was measured as a ratio of occupied area to the total area using Image J program (NIH).
For transwell assays, 10,000 cells were plated in triplicate on 8 micron inserts in 24 well plates containing DMEM. […] After staining, images were obtained using a computerized Zeiss microscope (Axiovert 200M) and analyzed using Axiovision 4.6 software (Carl Zeiss Inc.).

The test system of the next data set is intracellular Ca^2+. The data set can be described thus: Intracellular calcium measurements (Fura-2, ATP stimulation). The method, then:
MDA-control, MDA-miR-708, and MDA-miR-708-Nnat-mut cells were grown on coverslips and used 2-3 days after plating. Cells were loaded with […] Fura-2 (Molecular Probes), a membrane-permeable Ca^2+-indicator dye, at 37° C. for 30 min. Cells were then washed and incubated in HEPES-buffered Na^+-Ringer's solution (140 mM NaCl, 5 mM KCl, 10 mM HEPES, 2 mM CaCl2, and 1 mM MgCl2, pH 7.4). Individual vials (50 mg) of the acetoxymethyl derivative of Fura-2 (Invitrogen/Molecular Probes) were stored dry at 0° C. and reconstituted in dimethyl sulfoxide at a concentration of 10 mM for each experiment. At the concentrations used, dimethyl sulfoxide had no effect on any preparation in these studies. The coverslip with the dye-loaded cells was attached to the bottom of a flow-through superfusion chamber and mounted on the stage of an inverted epifluorescence microscope (Nikon Eclipse TE-2000). The cells in the chamber were superfused and maintained at 37° C. as previously described (O'Connor and Silver, 2007). Cells were first visualized under transmitted light with a Nikon CF Fluor oil immersion objective (X40/1.3 numerical aperture) before the start of the fluorescence measurements. Images were obtained at 340 nm and 380 nm excitation and at 510 nm emission wavelengths. The ratio was determined from the images at 340 nm and 380 nm. The imaging workstation was controlled with the MetaFluor software package (Universal Imaging). Cells in the experimental field of view were analyzed singularly and independently from their neighbors. Results are expressed as means±SEM, where n refers to the total number of individually analyzed cells.
The inventors hypothesized that miR-708-mediated targeting of Nnat may lead to impaired regulation of intracellular Ca^2+. This would explain the inhibitory effect on the migratory phenotype of metastatic tumor cells observed earlier (see, e.g., FIG. 1E). To test this hypothesis, MDA and MDA-miR-708 cells were loaded with the intracellular calcium indicator, Fura-2, and the 340/380 ratios were monitored in the absence and presence of exogenous ATP. ATP binds ATP receptors on the cell surface, resulting in the cleavage of PIP2 into IP3 and DAG. IP3 binds IP3 receptors on the endoplasmic reticulum membrane, and releases ionized calcium from the endoplasmic reticulum (Vandewalle et al., 1994), (Berridge et al., 2003; Swanson et al., 1998). Thus, ATP-stimulated calcium release from endoplasmic reticulum was used to evaluate the consequence of Nnat suppression by miR-708.

Regarding “miR-708: microRNA, mature sequence 5'-AAGGAGCUUACAAUCUAGCUGGG-3' (SEQ ID NO: 2); expressed from lentiviral vector or used as synthetic precursor”, the cell proliferation entry with MDA cells was “No significant change”. The migration rates entry with MDA-MB-231 (MDA) is given as “suppressed migration rates”. Moreover, the “regulation of intracellular Ca^2+ after ATP” value with intracellular Ca^2+ (MDA cells expressing miR-708 vs MDA) was “attenuated regulation”. The “slope, initial rate of calcium regulation back to baseline (representative trace)” value in the data set on intracellular Ca^2+ (MDA-miR-708 cells stimulated with ATP, control slope 0.72) is reported as 0.3 ratio/min. Also, in the data set with intracellular Ca^2+ (MDA-miR-708 cells, mean±SEM), the “pre-ATP stimulation (basal) ratio” value is reported as 0.97±0.01. Moreover, the “peak calcium response due to ATP stimulation (340/380 ratio)” value in the data set on intracellular Ca^2+ (MDA-miR-708 cells, mean±SEM, n=107) was found to be 1.77±0.06. Moreover, the “initial rate of calcium regulation back to baseline” value in the data set with intracellular Ca^2+ (MDA-miR-708 cells, n=105, control 0.52±0.03) worked out at 0.33±0.02.
